The assay concerns the target T1, human RXFP1 (Homo sapiens, UniProt Q9HBX9).
T1 construct: expressed in transfected cells
T1 sequence (Q9HBX9 1-757): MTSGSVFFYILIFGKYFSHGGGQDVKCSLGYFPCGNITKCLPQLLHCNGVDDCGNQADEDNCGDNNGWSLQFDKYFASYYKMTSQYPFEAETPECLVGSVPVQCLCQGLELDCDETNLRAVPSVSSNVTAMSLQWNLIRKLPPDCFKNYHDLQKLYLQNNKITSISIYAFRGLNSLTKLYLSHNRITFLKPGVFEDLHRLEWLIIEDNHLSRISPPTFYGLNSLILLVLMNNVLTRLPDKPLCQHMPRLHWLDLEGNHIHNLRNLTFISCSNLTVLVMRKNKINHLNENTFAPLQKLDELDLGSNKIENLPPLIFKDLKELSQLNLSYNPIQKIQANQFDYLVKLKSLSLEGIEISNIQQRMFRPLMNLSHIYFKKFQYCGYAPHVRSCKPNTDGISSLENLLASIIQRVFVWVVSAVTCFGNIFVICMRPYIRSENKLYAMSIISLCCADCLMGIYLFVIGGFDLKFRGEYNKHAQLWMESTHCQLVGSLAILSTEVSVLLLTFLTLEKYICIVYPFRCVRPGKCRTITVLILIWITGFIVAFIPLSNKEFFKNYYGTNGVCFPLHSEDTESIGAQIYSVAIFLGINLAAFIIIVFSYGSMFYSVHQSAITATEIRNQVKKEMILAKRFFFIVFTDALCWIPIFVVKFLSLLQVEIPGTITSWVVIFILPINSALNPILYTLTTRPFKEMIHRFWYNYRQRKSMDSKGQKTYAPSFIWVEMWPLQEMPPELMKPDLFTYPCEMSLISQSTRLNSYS
Kind of assay: human RXFP1 (hRXFP1) HEK293 cAMP assay (HTRF). It counts as cell-based. Particulars: HEK293 cells stably expressing human RXFP1, 30 min at room temperature. An outline of the steps: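 Intracellular cAMP was quantified by HTRF after a 30 min room-temperature exposure of hRXFP1-HEK293 cells (1500/well) to compound at 0.010 nM–50 µM final, 2% DMSO. Buffer was HBSS with 20 mM HEPES, 0.05% BSA and 0.5 mM IBMX; values came from a 4-parameter logistic fit.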

`COc1cc2c(cc1C(=O)N[C@@H]1C3CCC(/C3=C/C3CC3)[C@@H]1C(=O)Nc1ccc(F)c(C(F)(F)F)c1)CN(CCCO)CC2` (stereo partly drawn) [Example 86, N-[(1R,2R,3S,4R)-7-(cyclopropyl-methylidene)-3-{[4-fluoro-3-(trifluoromethyl)phenyl]carbamoyl}bicyclo[2.2.1]heptan-2-yl]-2-(3-hydroxypropyl)-6-methoxy-1,2,3,4-tetrahydroiso-quinoline-7-carboxamide] came in with a half-maximal effective concentration (EC50) of 240 nM.

In the case of `COCCN1CCc2cc(OC)c(C(=O)N[C@H]3[C@@H](C(=O)Nc4ccc(F)c(C(F)(F)F)c4)[C@H]4CC[C@@H]3/C4=C\C3CC3)cc2C1` [Example 87, N-[(1R,2R,3S,4R)-7-(cyclopropyl-methylidene)-3-{[4-fluoro-3-(trifluoromethyl)phenyl]carbamoyl}bicyclo[2.2.1]heptan-2-yl]-6-methoxy-2-(2-methoxyethyl)-1,2,3,4-tetrahydro-isoquinoline-7-carboxamide], a half-maximal effect (EC50) was put at 630 nM.

On to `COc1cc2c(cc1C(=O)N[C@H]1[C@@H](C(=O)Nc3ccc(F)c(C(F)(F)F)c3)[C@H]3CC[C@@H]1/C3=C\C1CC1)CN(S(=O)(=O)CC(C)C)CC2` [Example 88, N-((1R,2R,3S,4R,Z)-7-(cyclopropylmethylene)-3-((4-fluoro-3-(trifluoromethyl)phenyl)carbamoyl)bicyclo[2.2.1]heptan-2-yl)-2-(isobutylsulfonyl)-6-methoxy-1,2,3,4-tetrahydroisoquinoline-7-carboxamide], for which a half-maximal effect (EC50) was put at 110 nM.

In the case of `COc1cc2c(cc1C(=O)N[C@H]1[C@@H](C(=O)Nc3ccc(F)c(C(F)(F)F)c3)[C@H]3CC[C@@H]1/C3=C\C1CC1)CN(S(C)(=O)=O)CC2` [Example 89, N-[(1R,2R,3S,4R)-7-(cyclopropyl-methylidene)-3-{[4-fluoro-3-(trifluoromethyl)phenyl]carbamoyl}bicyclo[2.2.1]heptan-2-yl]-2-methanesulfonyl-6-methoxy-1,2,3,4-tetrahydro-isoquinoline-7-carboxamide], the EC50 is 230 nM.

Compound `COc1cc2c(cc1C(=O)N[C@H]1[C@@H](C(=O)Nc3ccc(F)c(C(F)(F)F)c3)[C@H]3CC[C@@H]1/C3=C\C1CC1)CCN(CCCO)C2` [Example 90, N-((1R,2R,3S,4R,Z)-7-(cyclopropylmethylene)-3-((4-fluoro-3-(trifluoromethyl)phenyl)carbamoyl)bicyclo[2.2.1]heptan-2-yl)-2-(3-hydroxypropyl)-7-methoxy-1,2,3,4-tetrahydroisoquinoline-6-carboxamide] showed an EC50 of 2400 nM.

The compound `COCCN1CCc2cc(C(=O)N[C@@H]3C4CCC(/C4=C/C4CC4)[C@@H]3C(=O)Nc3ccc(F)c(C(F)(F)F)c3)c(OC)cc2C1` (some centres unmarked) [Example 91] registered an EC50 of 4700 nM.

The compound `COc1cc2c(cc1C(=O)N[C@@H]1C3CCC(/C3=C/C3CC3)[C@@H]1C(=O)Nc1ccc(F)c(C(F)(F)F)c1)CCN(CCS(C)(=O)=O)C2` (some centres unmarked) [Example 92] came in with a concentration for a half-maximal effect (EC50) of 4800 nM.

`COc1cc2c(cc1C(=O)N[C@@H]1C3CCC(/C3=C/C3CC3)[C@@H]1C(=O)Nc1ccc(F)c(C(F)(F)F)c1)CCN(S(C)(=O)=O)C2` (some centres unmarked) [Example 93] showed an EC50 of 1700 nM.

Consider `COc1cc2c(cc1C(=O)N[C@@H]1C3CCC(/C3=C/C3CC3)[C@@H]1C(=O)Nc1ccc(F)c(C(F)(F)F)c1)CN(CCO)CC2` (some centres unmarked) [Example 94], for which the midpoint of the response, the EC50, lay at 1200 nM.

The compound `COc1cc2c(cc1C(=O)N[C@@H]1C3CCC(/C3=C/C3CC3)[C@@H]1C(=O)Nc1ccc(F)c(C(F)(F)F)c1)CCN(CC(C)(C)O)C2` (some centres unmarked) [Example 95] came in with an EC50 of 1600 nM.

With `COc1ncc(C2=NOC3CC(CO)CC23)cc1C(=O)N[C@H]1[C@@H](C(=O)Nc2ccc(F)c(C(F)(F)F)c2)[C@H]2CC[C@@H]1/C2=C\c1cscn1` (stereo partly drawn) [Example 96, N-((1R,2R,3S,4R,Z)-3-((4-fluoro-3-(trifluoromethyl)phenyl)carbamoyl)-7-(thiazol-4-ylmethylene)bicyclo[2.2.1]heptan-2-yl)-5-(5-(hydroxymethyl)-3a,5,6,6a-tetrahydro-4H-cyclopenta[d]isoxazol-3-yl)-2-methoxy-nicotinamide], the midpoint of the response, the EC50, lay at 1.4 nM.

The compound `COc1ncc(C2=NOC3CC(CO)CC23)cc1C(=O)N[C@H]1[C@@H](C(=O)Nc2ccc(F)c(C(F)(F)F)c2)[C@H]2CC[C@@H]1/C2=C\c1cscn1` (stereo partly drawn) [Example 97, N-((1R,2R,3S,4R,Z)-3-((4-fluoro-3-(trifluoromethyl)phenyl)carbamoyl)-7-(thiazol-4-ylmethylene)bicyclo [2.2.1]heptan-2-yl)-5-(5-(hydroxymethyl)-3a,5,6,6a-tetrahydro-4H-cyclopenta[d]isoxazol-3-yl)-2-methoxy-nicotinamide] returned an EC50 of 3.1 nM.

The compound `COc1ncc(C2=NOC3CC(CO)CC23)cc1C(=O)N[C@@H]1C2CCC(/C2=C/c2csc(C)n2)[C@@H]1C(=O)N[C@H](C)C1(C)CC1` (some centres unmarked) [Example 99] returned a 50% effective concentration (EC50) of 3.2 nM.

On to `COc1ncc(C2=NOC3COCC23)cc1C(=O)N[C@H]1[C@@H](C(=O)N[C@H](C)C2(C)CC2)[C@H]2CC[C@@H]1/C2=C\c1csc(C(F)F)n1` (stereo partly drawn) [Example 100, N-((1R,2R,3S,4R,Z)-7-((2-(difluoromethyl)thiazol-4-yl)methylene)-3-(((R)-1-(1-methylcyclopropyl)ethyl)carbamoyl)bicyclo[2.2.1]heptan-2-yl)-2-methoxy-5-(3a,4,6,6a-tetrahydrofuro[3,4-d]isoxazol-3-yl)nicotinamide], for which a half-maximal effect (EC50) was put at 3.4 nM.

Regarding `COc1ncc(C2=NOC3CC(CO)CC23)cc1C(=O)N[C@H]1[C@@H](C(=O)Nc2ccc(F)c(C(F)(F)F)c2)[C@H]2CC[C@@H]1/C2=C\C1CCCC1` (stereo partly drawn) [Example 101, N-((1R,2R,3S,4R,Z)-7-(cyclopentyl-methylene)-3-((4-fluoro-3-(trifluoromethyl)phenyl)carbamoyl)bicyclo[2.2.1]heptan-2-yl)-5-(5-(hydroxymethyl)-3a,5,6,6a-tetrahydro-4H-cyclopenta[d]isoxazol-3-yl)-2-methoxynicotinamide], the 50% effective concentration (EC50) amounted to 1.6 nM.

`COc1ncc(-c2cnc3n2CC(O)CC3)cc1C(=O)N[C@H]1[C@@H](C(=O)Nc2ccc(F)c(C(F)(F)F)c2)[C@H]2CC[C@@H]1/C2=C\C1CC1` (stereo partly drawn) [Example 102, N-((1R,2R,3S,4R,Z)-7-(cyclopropyl-methylene)-3-((4-fluoro-3-(trifluoromethyl)phenyl)carbamoyl)bicyclo[2.2.1]heptan-2-yl)-5-(6-hydroxy-5,6,7,8-tetrahydroimidazo [1,2-a]pyridin-3-yl)-2-methoxynicotinamide] gave an EC50 of 2.5 nM.

On to `COc1ncc(-c2cnc3n2CC(O)CC3)cc1C(=O)N[C@H]1[C@@H](C(=O)Nc2ccc(F)c(C(F)(F)F)c2)[C@H]2CC[C@@H]1/C2=C\C1CC1` (stereo partly drawn) [Example 103, N-((1R,2R,3S,4R,Z)-7-(cyclopropyl-methylene)-3-((4-fluoro-3-(trifluoromethyl)phenyl)carbamoyl)bicyclo[2.2.1]heptan-2-yl)-5-(6-hydroxy-5,6,7,8-tetrahydroimidazo [1,2-a]pyridin-3-yl)-2-methoxynicotinamide], for which the EC50 was determined as 3.4 nM.

For `COc1ncc(-c2cnc3n2CC(O)CC3)cc1C(=O)N[C@H]1[C@@H](C(=O)Nc2ccc(F)c(C(F)(F)F)c2)[C@H]2CC[C@@H]1/C2=C\C1CC1` (stereo partly drawn) [Example 104, N-((1R,2R,3S,4R,Z)-7-(cyclopropyl-methylene)-3-((4-fluoro-3-(trifluoromethyl)phenyl)carbamoyl)bicyclo[2.2.1]heptan-2-yl)-5-(6-hydroxy-5,6,7,8-tetrahydroimidazo[1,2-a]pyridin-3-yl)-2-methoxynicotinamide], the half-maximal effective concentration (EC50) came out at 4 nM.

On to `COc1ncc(C2=NOC3CC(CO)CC23)cc1C(=O)N[C@H]1[C@@H](C(=O)N[C@H](C)C2(C)CC2)[C@H]2CC[C@@H]1/C2=C\C1CC1` (stereo partly drawn) [Example 105, N-((1R,2R,3S,4R,Z)-7-(cyclopropyl-methylene)-3-(((R)-1-(1-methylcyclopropyl)ethyl)carbamoyl)bicyclo[2.2.1]heptan-2-yl)-5-(5-(hydroxymethyl)-3a,5,6,6a-tetrahydro-4H-cyclopenta[d]isoxazol-3-yl)-2-methoxynicotinamide], for which the midpoint of the response, the EC50, lay at 1.2 nM.

`COc1ncc(C2=NO[C@@H]3C[C@H](CO)CN23)cc1C(=O)N[C@@H]1C2CCC(/C2=C/C2CC2)[C@@H]1C(=O)N[C@H](C)C1(C)CC1` (stereo partly drawn) [Example 106, N-((1R,2R,3S,4R,Z)-7-(cyclopropyl-methylene)-3-(((R)-1-(1-methylcyclopropyl)ethyl)carbamoyl)bicyclo[2.2.1]heptan-2-yl)-5-((6S,7aR)-6-(hydroxymethyl)-5,6,7,7a-tetrahydropyrrolo [1,2-d][1,2,4]oxadiazo 1-3-yl)-2-methoxynicotinamide] registered an EC50 of 1.8 nM.
